Results from US20200113882A1, “Use of 4-Aminopyridine to Improve Neuro-Cognitive and/or Neuro-Psychiatric Impairment in Patients with Demyelinating and Other Nervous System Conditions” (priority 2009, published 2020).

Key:
[1] = rat pharmacokinetics after i.v. and p.o. 2 mg/kg (M 2001-03); conditions: rats, single p.o. 2 mg/kg
[2] = adverse events in clinical studies; format: in vivo, human; conditions: controlled clinical studies
Description: In controlled clinical studies involving the use of fampridine, the most frequent adverse events by body system occurred in the nervous system, “body as a whole”, and digestive system.
While an increased incidence of such events appears to be moderately dose-related, the susceptibility of individuals is quite variable. The potential for lowering seizure threshold in people with MS appears to be more significant than for people with spinal cord injury, which may result from interaction of the channel-blocking properties of the drug with MS brain pathology in certain individuals.

[3] = single- and repeated-dose toxicity studies in animals; format: in vivo
Experimental: In single- and repeated-dose toxicity studies, the dosing regimen greatly affected the rate of mortality and incidence of clinical signs in all species studied (with the possible exception of the mouse). In general, higher mortality rates and greater incidences of adverse clinical signs were noted when 4-aminopyridine was administered in a single large dose as compared to when the same total dose was given as two, three, or four equally divided sub-doses. Toxic responses to orally administered 4-aminopyridine were rapid in onset, most often occurring within the first 2 hours post-dose.
These clinical signs were not unexpected and represent exaggerated pharmacology of 4-aminopyridine.

[4] = tested on: cognitive function in MS patients; conditions: prior study; cited from earlier work
[5] = tested on: normal adult myelinated axons; conditions: cited from earlier work
[6] = 14C-4-aminopyridine single oral dose 1 mg/kg in rats (HWI 6379-101): absorption, tissue distribution
Experimental: (§1) Studies were performed in rats and dogs using ^14C-labeled 4-aminopyridine (1 mg/kg) given as a single oral gavage dose in solution.
In a single-dose study, rats were administered ^14C-labeled 4-aminopyridine (1 mg/kg) p.o. Three animals per time point were sacrificed 1, 3, 8, and 24 hours post-dose. Blood was collected and tissues were excised for determination of radioactivity.

[7] = 14C-4-aminopyridine single oral dose 1 mg/kg in dogs (HWI 6379-102): absorption; format: in vivo, dog; conditions: equal mg/kg doses, 1 mg/kg oral
Experimental: as §1

[8] = rats, 1 mg/kg p.o., one hour post-dose

| SMILES | Vdss difference between males and females adjusted for body weight [1] | most common nervous system adverse events [2] | most frequently reported digestive system adverse event [2] | clinical signs ([3]; after large single doses or repeated lower doses, all species studied) | onset of toxic responses post-dose ([3]; orally administered, most often) | benefit of cognitive function [4] | concentrations that tend to cause gradual depolarization of the axon resting potential ([5]; (94.1 μg/mL)) | concentrations at which action potential shows little or no sensitivity ([5]; normal adult myelinated axons (9.4 μg/mL)) | time to peak plasma levels ([6]; both, rat, in vivo, po, 1 mg/kg) | radioactive dose in carcass ([6]; rats, 1 mg/kg p.o., 3 hours post-dose) | dose accounted for in total (radioactivity) [6, 8] | radioactivity in blood, percent of dose [6, 8] | radioactivity in carcass [6, 8] | radioactivity in kidney, percent of dose [6, 8] | radioactivity in liver, percent of dose [6, 8] | Cmax and AUC in the dog relative to the rat [7] |
| --- | --- | --- | --- | --- | --- | --- | --- | --- | --- | --- | --- | --- | --- | --- | --- | --- |
| Nc1ccncc1 [4-aminopyridine] | 2% | Dizziness, insomnia, paresthesia, pain, headache and asthenia | nausea | tremors, convulsions, ataxia, dyspnea, dilated pupils, prostration, abnormal vocalization, increased respiration, excess salivation, gait abnormalities, and hyper- and hypo-excitability | ≤ 2 h | did not show benefit | above 1 mM | below 100 μM |  |  |  |  |  |  |  |  |
| Nc1ccncc1 [14C-4-Aminopyridine] |  |  |  |  |  |  |  |  | 0.5 to 1 h | 15.4% | 58.3% | 0.7% | 51% | 1.6% | 2.6% | approximately four-fold higher |
